Data on one substance can be found in US20090227547A1, “Novel salt form of a Beta2-adrenergic agonist quinolin-2-one derivative” (Glaxo Group Limited, priority 2005, published 2009).

What all share (assay type): physicochemical
One data set in a line: hygroscopicity.
Data set [1] in a line: solubility in solvents (crystallisation antisolvents). Particulars: in a wide range of solvents usable as antisolvents (water, tetrahydrofuran, lower alcohols, acetone).
Data set [2] in a line: physical and chemical stability on storage. Particulars: general statement.

“N-[2-[4-[(3-phenyl-4-methoxyphenyl)amino]phenyl]ethyl]-(R)-2-hydroxy-2-(8-hydroxy-1,2-dihydro-2-oxoquinolin-5-yl)ethylammonium 2,5-dichlorobenzenesulfonate”: the hygroscopicity result in the data set “hygroscopicity” was “substantially non-hygroscopic”. For the same substance, in data set [1], the solubility entry is “limited solubility”. For the same substance, the “physical and chemical stability on storage” value in data set [2] was “good physical and chemical stability on storage”.
